Several values for one entry are separate records, joined by “and”; a condition that tells them apart may be missing. Identical values can stand only once. Marks after values point to notes of the source that are not given here.
Legend:
[1] = Blood and plasma total radioactivity pharmacokinetics after [14C]-GSK1278863; type: in vivo, human; conditions: for tmax, total radioactivity: median (range)
Description: As per standard practice for administration of radiolabeled drug, the IV and oral dosing solutions were analyzed for daprodustat via assessment of the radioactivity and through application of the predetermined specific activity. Whole blood samples were collected for measurement of each of the following: blood total radioactivity in period 2 and plasma total radioactivity in period 1, plasma concentrations of daprodustat, and the 6 predominant circulating metabolites in periods 1 and 2. Blood samples were collected at 1, 3, and 6 hours after dosing for blood assessments. Blood samples were collected for plasma assessments before dosing and at 0.50, 1, 1.25, 1.5, 2, 3, 4, 6, 8, 10, 12, 24, 36, 48, 72, 96, 120, and 144 hours after dosing.
Whole blood samples for unlabeled assays were collected into K3 ethylenediaminetetraacetic acid tubes, gently inverted several times and immediately placed on ice water. Samples were then centrifuged at 1500 × g for 15 minutes; the supernatant plasma was transferred to Nunc tubes and stored at −20°C before shipment. Samples for unlabeled daprodustat and specific assay metabolite measurements were shipped frozen to PPD Laboratories (Middleton, Wisconsin). Samples for radioactivity measurements were shipped frozen to either GSK Research and Development (Ware, Hertfordshire, UK; period 1) or Covance (period 2). Some period 2 plasma samples were subsequently analyzed by accelerator mass spectrometry (AMS) at Ware (UK) after being not quantifiable by LSC analysis.
Human urine, feces, and blood samples from treatment period 2 were analyzed by Covance using LSC. The LLQ for urine using LSC was 5.63 ng Eq/mL, using a 1000 μL aliquot of human urine. The LLQ for blood using LSC was 11.6 ng Eq/mL, using a 400 μL aliquot of human blood. The LLQ for feces using LSC was 25.3 ng Eq/mL, using a 0.2‐ to 0.4‐g aliquot of human feces. Treatment period 2 plasma samples that were not quantifiable following LSC analysis at Covance were subsequently reanalyzed for total radioactivity by AMS at GSK. The LLQ using AMS was 15.8 pg Eq/mL, using a 50 μL aliquot of human plasma.
Plasma daprodustat and [^14C]‐GSK1278863 plasma and blood total radioactivity concentration‐time data were analyzed by noncompartmental methods with WinNonlin Version 6.3 or above (Certara, Princeton, New Jersey). Calculations were based on the actual sampling times recorded during the study. From the plasma concentration‐time data, the following PK parameters were determined for daprodustat, its metabolites, [^14C]‐GSK1278863, and total radioactivity, as the data permitted: maximum observed plasma concentration (Cmax), time to Cmax (tmax), area under the plasma concentration–time curve (AUC) from time 0 to the last measurable concentration (AUC0‐t), AUC from time 0 extrapolated to infinity (AUC0–inf), and apparent terminal phase half‐life (t½), following oral and IV dosing. Additionally, daprodustat volume of distribution at steady state (Vss) and the total systemic clearance (CL) were derived following IV dosing, and daprodustat absolute bioavailability (F) was determined from the oral tablet and IV plasma PK data from treatment period 1 with the following equation: F=AUCpo/AUCIV×doseIV/dosepo
To assess relative exposure levels between parent daprodustat and the measured metabolites, the ratio of parent daprodustat/total radioactivity was calculated for the plasma PK parameters following IV and oral administration of [^14C]‐GSK1278863: Cmax, AUC0‐t, and AUC0‐inf.

[2] = Metabolite load, hepatic extraction, fraction escaping gut metabolism and fraction absorbed analyses; type: in vivo, human
Description: To assess the extent of metabolism and absorption of daprodustat, the plasma PK parameters: metabolite load, fraction escaping metabolism by the gut wall (Fg), hepatic extraction (Eh), and fraction absorbed (Fabs) were calculated on the basis of equations found in Harrell et al.[18] All parameters for analysis have been conducted on plasma results (assuming a blood to plasma ratio of 1) but when appropriate, the actual human blood:plasma ratio of 1.23 (internal GSK reports) of daprodustat has been applied to specific parameters to aid interpretation. (1) HepaticExtraction:Eh(blood)=CLbtotal−CLbrenal/QH (2) Fractionescapinglivermetabolism:Fh=1−Eh(blood) (3) MetaboliteLoadTRA=totalradioactivity:MLroute=AUCTRAroute−AUCroute/AUCTRAroute (4) Fractionescapinggut:Fg=1−MLoral−MLIV/Fh (5) Fractionabsorbed:Fabs=Foral/Fh×Fg

[3] = IV infusion, plasma, mean (SD), n = 5
[4] = oral solution, plasma, mean (SD)

Compound: O=C(O)CNC(=O)C1C(=O)N(C2CCCCC2)C(=O)N(C2CCCCC2)C1=O [Daprodustat]
- AUC0‐inf ratio of plasma daprodustat to plasma total radioactivity ([1]; IV administration): 0.40
- AUC0‐t ratio of plasma daprodustat to plasma total radioactivity ([1]; IV administration): 0.40
- Cmax ratio of plasma daprodustat to plasma total radioactivity ([1]; IV administration): 0.68
- AUC0‐t, total radioactivity ([1]; IV infusion, plasma, mean (SD)): 6.62 (1.20) ng Eq • h/mL
- Cmax, total radioactivity ([1]; IV infusion, plasma, mean (SD)): 3.04 (0.49) ng Eq/mL
- AUC0‐inf, total radioactivity [1, 3]: 6.79 (1.31) ng Eq • h/mL
- CL, total radioactivity [1, 3]: 7.59 (1.50) μg/[ng Eq • h/mL]
- Vss, total radioactivity [1, 3]: 36.3 (19.6) μg/[ng Eq/mL]
- t½, total radioactivity [1, 3]: 8.88 (6.58) h
- tmax, total radioactivity ([1]; IV infusion, plasma): 0.98 h
- tmax, total radioactivity ([1]; IV infusion, plasma, listed as [^14C]‐GSK1278863): 0.983 (0.983−1.25) h
- parent daprodustat as share of total circulating radioactivity in plasma ([1]; following IV and oral solution administration, AUC ratio): Approximately 40%
- blood:plasma ratio of total radioactivity ([1]; from Cmax in blood and plasma after oral solution): 0.46
- AUC0‐inf ratio of plasma daprodustat to plasma total radioactivity ([1]; oral solution administration): 0.42
- AUC0‐t ratio of plasma daprodustat to plasma total radioactivity ([1]; oral solution administration): 0.43
- Cmax ratio of plasma daprodustat to plasma total radioactivity ([1]; oral solution administration): 0.87
- Cmax, total radioactivity ([1]; oral solution, blood, mean (SD), listed as [^14C]‐GSK1278863): 302 ng Eq/mL and 302 (95.6) ng Eq/mL
- tmax, total radioactivity ([1]; oral solution, blood): 1.00 (1.00−3.00) h
- AUC0‐t, total radioactivity ([1]; oral solution, blood, t = 6 hours, mean (SD)): 835 (154) ^b ng Eq • h/mL
- AUC0‐inf, total radioactivity [1, 4]: 2312 (447) ng Eq • h/mL
- AUC0‐t, total radioactivity [1, 4]: 2239 (441) ng Eq • h/mL
- t½, total radioactivity [1, 4]: 62.4 (9.62) h
- Cmax, total radioactivity ([1]; oral solution, plasma, mean (SD), listed as [^14C]‐GSK1278863): 654 ng Eq/mL and 654 (219) ng Eq/mL
- tmax, total radioactivity ([1]; oral solution, plasma): 0.76 h
- tmax, total radioactivity ([1]; oral solution, plasma, listed as [^14C]‐GSK1278863): 0.758 (0.500−3.00) h
- Eh (hepatic extraction) ([2]; [14C] IV infusion, fraction, adjusted with blood:plasma ratio of 1.23, mean (SD), n = 3): 0.181 (0.050)
- MLIV (plasma metabolite load) ([2]; [14C] IV infusion, mean (SD), n = 3): 0.623 (0.080)
- MLIV (plasma metabolite load) ([2]; [14C] IV infusion, mean (SD), n = 3, listed as daprodustat): ≈ 0.623 (0.080)
- Fabs (fraction absorbed) ([2]; [14C] oral solution, fraction, reduced to Foral/Fh, blood:plasma ratio 1.23, mean (SD), n = 3): 0.811 (0.134)
- Fg (fraction escaping metabolism by the gut wall) ([2]; [14C] oral solution, mean (SD), n = 3): > 1
- MLPO (plasma metabolite load) ([2]; [14C] oral solution, mean (SD), n = 6): ~0.584 (0.060)
- daprodustat absorbed across the gastrointestinal tract (Fabs) ([2]; following oral solution administration): ≈ 80% and 81% and ≈ 81%
- hepatic extraction ([2]; from blood CL, human liver blood flow of 87 L/h): ≈ 18% and 18%

From article PMC9298194, “Clinical Pharmacokinetics of Daprodustat: Results of an Absorption, Distribution, and Excretion Study With Intravenous Microtracer and Concomitant Oral Doses for Bioavailability Determination” (Clinical Pharmacology in Drug Development, 2021)
